Each structure is given as a SMILES string.

Sequence of SspH1 (161–700) (D0ZVG2 161-700): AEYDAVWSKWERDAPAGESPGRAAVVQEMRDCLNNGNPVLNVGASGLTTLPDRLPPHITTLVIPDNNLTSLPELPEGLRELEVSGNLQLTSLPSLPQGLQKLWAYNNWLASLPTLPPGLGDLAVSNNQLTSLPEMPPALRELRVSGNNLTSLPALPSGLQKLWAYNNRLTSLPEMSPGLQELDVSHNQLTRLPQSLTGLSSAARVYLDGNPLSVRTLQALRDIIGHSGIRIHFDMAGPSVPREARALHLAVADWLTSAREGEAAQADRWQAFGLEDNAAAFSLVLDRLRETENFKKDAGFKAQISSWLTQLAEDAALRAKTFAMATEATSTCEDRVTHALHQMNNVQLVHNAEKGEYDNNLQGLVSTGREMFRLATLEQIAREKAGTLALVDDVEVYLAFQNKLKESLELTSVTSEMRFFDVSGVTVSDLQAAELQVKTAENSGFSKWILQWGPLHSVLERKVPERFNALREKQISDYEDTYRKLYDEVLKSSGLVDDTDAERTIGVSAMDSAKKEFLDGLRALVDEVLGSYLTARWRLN

This assay has as its target SspH1 (161–700) (Salmonella typhimurium, UniProt D0ZVG2). Kind of assay: Round 1 intact protein LC-MS covalent fragment labelling screen and dilution series. The format is binding. Set-up: Recombinant IpaH9.8 (21–545) and SspH1 (161–700) were incubated at 0.5 μM; His-tag (N, cleaved yes); made in house; host or cells: E. coli BL21. To be noted: round 1 screen; 0.5 μM SspH1, 50 μM fragments, 24 hours at 4 °C. Here is the method: A diverse library of 227 compounds with chloroacetamide warheads, featuring a diversity of molecular weight (162–321 Da) and clog P (−1.4 to 3.4) (Table S1), were screened against Salmonella and Shigella NEL E3 ligases using our intact protein liquid chromatography mass spectrometry (LC-MS) platform as previously described.[39,40] Briefly, recombinant SspH1 (161–700[30]) and IpaH9.8 (21–545[29]) (Fig. 1A and B) were incubated with 50 μM fragments for 24 hours at 4 °C before analysis by LC-MS (Fig. 1C). Raw counts were deconvoluted and the labelling percentage calculated by detection and comparison of protein and protein-fragment molecular weights.
Fig. 1 Intact protein LCMS screening of covalent fragment library against NEL proteins. (A) Cartoon depicting conserved NEL E3 ligase domains; (B) overlaid structures of SspH1 (blue, PDB 9H6W[30]) and IpaH9.8 (green, PDB 6LOL[29]) aligned on NEL domain; (C) workflow of covalent fragment screening using intact LC-MS; (D) fragment labelling percentages for SspH1 and IpaH9.8 with fragments 1–3 highlighted. Recombinant IpaH9.8 (21–545) and SspH1 (161–700) were incubated at 0.5 μM with 50 μM fragments for 24 hours at 4 °C, before fragment labelling was analysed by intact LC-MS; (E) chemical structures of fragments 1–3.
We next analysed the potency of compounds 4–10 against SspH1. The seven compounds were obtained as purified compounds (Table S2) and screened against SspH1 by intact LC-MS (Fig. 3A) with two-fold serial dilution (100–6.25 μM). To confirm which of the two cysteines in the SspH1 161–700 construct were labelled, we repeated the concentration response experiment with a catalytic cysteine mutant of SspH1 (C492K) (Fig. 3B). The complete abrogation of labelling confirmed that all […] compounds labelled the catalytic cysteine of SspH1.
1 μM IpaH9.8 or SspH1 were incubated with […] fragments for 24 hours at 4 °C, in 25 mM HEPES pH 7.5, 50 mM NaCl buffer. Intact protein LC-MS was performed as previously described.[40] The following deconvolution conditions were used for recombinant proteins studied in this work:
Dilution series experiments were performed as for 1st round screening. 1 μM OTUD4, OTUD5 or 0.5 μM HOIL, UbcH5A, SspH2, SspH1 C492K were incubated with 100–6.25 μM compounds for 24 hours at 4 °C, in 25 mM HEPES pH 7.5, 50 mM NaCl buffer. Intact protein LC-MS was performed as previously described.[40] The following deconvolution conditions were used for recombinant proteins studied in this work: […]
With `O=C(CCl)N1CCCN(C(=O)c2ccc(Cl)cc2)CC1` [fragment 1], the protein labelling percentage result is given as “greater than 30%”. Consider `Cl.O=C(CCl)N1CCC(n2nc3ccccc3n2)CC1` [fragment 2], for which the protein labelling percentage entry is “greater than 30%”. `Cc1cccn2cc(CCNC(=O)CCl)nc12.Cl` [fragment 3]: the protein labelling percentage entry was “greater than 30%”.

The values above are taken from article PMC12584752, “Covalent fragment screening to inhibit the E3 ligase activity of bacterial NEL enzymes SspH1 and SspH2” (RSC Chemical Biology, 2025).
